Reference: patent US9957236B2, “Selective inhibitors interfering with fibroblast growth factor receptor and FRS2 interaction for the prevention and treatment of cancer and other diseases” (LIMITED LIABILITY COMPANY “RUSSIAN PHARMACEUTICAL …, priority 2014, dated 2018)

Columns and labels:
FRS2 = biological target: T1, FRS2 (Homo sapiens, UniProt Q8WU20); test: FRS2 phosphorylation in FGF-2/heparin-stimulated KATO III cells (Western blotting, Wes); format: cell-based; parameters: endogenous in cells
T1 sequence (Q8WU20 1-508): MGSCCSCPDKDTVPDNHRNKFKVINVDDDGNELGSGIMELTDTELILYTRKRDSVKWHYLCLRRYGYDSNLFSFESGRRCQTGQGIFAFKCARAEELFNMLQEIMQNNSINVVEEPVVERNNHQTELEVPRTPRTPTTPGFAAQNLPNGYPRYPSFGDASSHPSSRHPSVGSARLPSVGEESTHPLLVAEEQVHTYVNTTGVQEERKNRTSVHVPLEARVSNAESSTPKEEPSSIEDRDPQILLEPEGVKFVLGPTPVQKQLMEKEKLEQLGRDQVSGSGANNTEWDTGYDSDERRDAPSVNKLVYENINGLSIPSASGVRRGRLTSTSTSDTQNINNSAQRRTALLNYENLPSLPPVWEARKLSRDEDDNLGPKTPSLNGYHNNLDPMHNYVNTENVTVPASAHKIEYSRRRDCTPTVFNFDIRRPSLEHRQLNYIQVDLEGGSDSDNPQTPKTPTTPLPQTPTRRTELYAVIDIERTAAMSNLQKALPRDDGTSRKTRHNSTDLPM
Method: For assessment of the effect of RPT835 inhibitor characterized in this invention with formula II, stomach cancer cells KATO III, which express FGFR2, were used for FRS2 phosphorylation. […] RPT835 was added in various concentrations. A part of the cells was left without adding the inhibitor, and a part of the cells—without adding either inhibitor, or stimulating agents (control group).
Two standard methods for assessment of the phosphorylation level of FGFR and FRS2: • Western blotting using manual work; • Automatic capillary electrophoresis and immunodetection using automatic system Wes™ (ProteinSimple; SantaClara, Calif.).
(§1) The purpose of this research was assessment of specific action of inhibitor RPT835 specified in this invention with formula II, on interaction of […] and FRS2 and assessment of influence on interaction of other types of FGFR and FRS2. For the experiment, 2 cell lines were selected: • stomach cancer KATO III, expressing FGFR2, and • breast cancer MDA MB 134, expressing FGFR1.
(§2) The research procedure was the same as in the previous examples: the cells were cultivated in presence of RPT835 followed by stimulation with FGF-2 and heparin. The other part of the cells was cultivated in presence of RPT835. Phosphorylation of FGFR1 (in breast cancer cells) and FGFR2 (in stomach cancer cells), and also FRS2a (in the both cell lines) and some intracellular kinases (in breast cancer cells) was assessed using manual and automated Western blotting.

SUM-52 cells = test: Proliferation of SUM-52 cells expressing FGFR2 IIIb; format: cell-based, human; settings: SUM-52 (FGFR2 IIIb), RPT835 1 micron, FGF-1 100 ng/ml
Method: The research assessed the influence of inhibitor RPT835 determined by formula II of this invention, intervention with interaction of FGFR2 represented by two most frequent isoforms IIIb and IIIc with FRS2. For this, human cell line of embryonal osteoblasts (hFOB) expressing only FGFR2 […], and human cell line of breast cancer SUM-52 expressing FGFR2 IIIb (all main versions of isoform—C1, C2, C3) were chosen.
Cells were divided into the groups: • 1a) hFOB • 1b) hFOB, stimulating FGF-1 (100 ng/ml) • 1c) hFOB, cultivation with RPT835 (1 micron) and stimulation of FGF-1 (100 ng/ml) • 2a) SUM-52 • 2b) SUM-52, stimulation of FGF-1 (100 ng/ml) • 2c) SUM-52, cultivation with RPT835 (1 micron) and stimulation of FGF-1 (100 ng/ml)

[1] = tested on: triple negative breast cancer SUM52PE; test: Tumor growth of SUM52PE xenograft in nude mice; format: in vivo
Method: Females of immunodeficient mice (nude) at the age of 8 weeks were administered 2×10^6 tumor cells of human cell lines with various expression of FGFR2: • cell line of triple-negative breast cancer SUM52PE strongly expressing FGFR2 (purchased from Asterand, Inc. (Detroit, Mich.) • cell line of triple negative breast cancer HS578T weakly expressing FGFR2 (purchased from ATCC (CRL-125) • cell line of non-small cell lung cancer NCI-H226 not expressing FGFR2 (purchased from ATCC (CRL-5826)
After the tumor growth got established (1 mm^3), the mice were divided into control and treatment groups in accordance with the tumor type.
Control group 1 (N=10): SUM52PE, administration of water through a stomach tube, daily.
Treatment group 1 (N=10): SUM52PE, administration of inhibitor RPT835 through a stomach tube in a dose of 30 mg/kg, daily.
Size of tumor and weight of animals were measured every 3 day. The mice underwent euthanasia when the tumor reached the size of 2,000 mm^3 or on the 60 day of the experiment.

FRS2α = biological target: T2, FRS2α (Homo sapiens, UniProt Q8WU20); test: FRS2α phosphorylation in breast cancer cells MDA MB 134 (FGFR1 system); format: cell-based; parameters: endogenous in cells; host or cells: MDA MB 134; settings: MDA MB 134 cells
T2 sequence (Q8WU20 1-508): T1 sequence (Q8WU20 1-508)
From the text: as §1, §2

Q: `Cc1cc([N+](=O)[O-])c(NS(=O)(=O)c2cccc(C(=O)O)c2)cc1-c1cccnc1` [RPT835, 3-(N-(4-methyl-2-nitro-5-(pyridin-3-yl)phenyl)sulfamoyl)benzoic acid] was tested. Which IC50 (FRS2; FGF-2 and heparin stimulation, read-out: concentration of the semi-maximal inhibiting (IC50) of FRS2 phosphorylation) did it give?
A: < 10 nM

Q: And the “Suppression of FRS2α phosphorylation” value (FRS2; concentration of 10 nM)?
A: > 50%

Q: And the “phosphorylation of FRS2α (FGFR2 system)” value (FRS2; dose of 100 nM)?
A: completely decreased phosphorylation of FRS2α (FGFR2 system) to the initial level

Q: And the proliferation of cells (SUM-52 cells)?
A: reliably suppressed proliferation

Q: And the “Slowdown of the tumor growth” value ([1]; 30 day, 30 mg/kg daily)?
A: 60.2%

Q: And the “average size of the tumor” value ([1]; 30 day, 30 mg/kg daily through a stomach tube)?
A: 1,080.7±49 mm3

Q: What about the “Size of tumor (median)” value ([1]; Day 7, 30 mg/kg daily through a stomach tube) of the same molecule?
A: 48.0 mm3

Q: What about the “Size of tumor (median)” value ([1]; Day 10, 30 mg/kg daily through a stomach tube) of the same molecule?
A: 112.0 mm3

Q: What about the “Size of tumor (median)” value ([1]; Day 13, 30 mg/kg daily through a stomach tube) of the same molecule?
A: 181.0 mm3

Q: And the “Size of tumor (median)” value ([1]; Day 16, 30 mg/kg daily through a stomach tube)?
A: 256.0 mm3

Q: And the “Size of tumor (median)” value ([1]; Day 19, 30 mg/kg daily through a stomach tube)?
A: 417.0 mm3

Q: What about the “Size of tumor (median)” value ([1]; Day 22, 30 mg/kg daily through a stomach tube) of the same molecule?
A: 591.0 mm3

Q: What about the “Size of tumor (median)” value ([1]; Day 25, 30 mg/kg daily through a stomach tube) of the same molecule?
A: 831.5 mm3

Q: What about the “Size of tumor (median)” value ([1]; Day 28, 30 mg/kg daily through a stomach tube) of the same molecule?
A: 958.5 mm3

Q: And the “Size of tumor (median)” value ([1]; Day 31, 30 mg/kg daily through a stomach tube)?
A: 1,088.0 mm3

Q: What about the “Size of tumor (median)” value ([1]; Day 34, 30 mg/kg daily through a stomach tube) of the same molecule?
A: 1,134 mm3

Q: What about the “Size of tumor (median)” value ([1]; Day 37, 30 mg/kg daily through a stomach tube) of the same molecule?
A: 1,174 mm3

Q: And the “Size of tumor (median)” value ([1]; Day 40, 30 mg/kg daily through a stomach tube)?
A: 1,208 mm3

Q: What about the “phosphorylation of FRS2α (system FGFR1)” value (FRS2α) of the same molecule?
A: did not have influence
